{
  "source": "paper PMC5612656",
  "about": "“In vitro and in vivo effects of 2,4 diaminoquinazoline inhibitors of the decapping scavenger enzyme DcpS: Context-specific modulation of SMN transcript levels” (PLoS ONE, 2017)",
  "key": {"[1]": {"test_system": "Renilla luciferase driven by the CMV promoter", "experiment": "Reporter gene assay, CMV-driven Renilla luciferase", "assay_type": "cell-based", "conditions": "24 hrs", "protocol": "(§1) The SMN2 reporter cell line was cultured in high-glucose DMEM supplemented with 10% (v/v) fetal bovine serum (FBS) and 1X Penicillin/Streptomycin. Reporter cells media was supplemented with hygromycin during maintenance. All cells were maintained at 37°C and […]. After seeding in 96-well white tissue culture plates at 25,000 per well, cells were incubated overnight before being exposed to different doses of compounds or DMSO for 24 hrs. The final DMSO concentration was kept constant at 0.1% (v/v). Firefly and renilla luciferase expression were assayed with DualGlo (Promega E2920) and measured on a PHERAstar FS microplate reader (BMG Labtech). Relative light units are normalized to DMSO control and expressed as a percentage."}, "Smn mRNA in NSC-34 cells": {"test_system": "Smn mRNA in NSC-34 cells", "parameters": "method as in PMID 18205293", "conditions": "cited from earlier work"}, "[2]": {"test_system": "SMN protein in SMA patient fibroblasts", "parameters": "method as in PMID 18205293", "conditions": "cited from earlier work"}, "SMA Δ7 mice": {"test_system": "SMA Δ7 mice", "conditions": "SMAΔ7 mice; cited from earlier work"}, "[3]": {"conditions": "cited from earlier work"}, "[4]": {"test_system": "firefly luciferase driven by the SMN2 promoter and SMN2 splicing cassette", "experiment": "SMN2 reporter gene assay, firefly luciferase", "assay_type": "cell-based", "conditions": "24 hrs", "protocol": "as §1"}, "[5]": {"test_system": "SMN transcripts in SMA-derived lymphoblasts", "experiment": "SMN transcripts by ddPCR in SMA-derived lymphoblasts", "assay_type": "cell-based, human", "conditions": "active DAQ-DcpSi vs 7-methyl analogues"}, "2B/- SMA mice [6]": {"test_system": "2B/- SMA mice", "experiment": "Survival and body weight study in 2B/- SMA mice", "assay_type": "in vivo, mouse", "conditions": "b.i.d. i.p. P4-P20, RG3039 6 mg/kg, PF-06738066 10 mg/kg, P < 0.0001 Mantel-Cox or Gehan-Breslow-Wilcoxon"}, "2B/- SMA mice [7]": {"test_system": "2B/- SMA mice", "experiment": "Combined 55° negative geotaxis/climb test in 2B/- SMA mice", "assay_type": "in vivo, mouse"}, "[8]": {"test_system": "Smn transcripts in spinal cord, skeletal muscle, liver", "experiment": "Smn transcripts in mouse tissues by ddPCR", "assay_type": "in vivo", "description": "(§2) At P1, pups were counted."}, "Smn protein [9]": {"test_system": "Smn protein", "experiment": "Smn protein in mouse tissues by Western blot", "assay_type": "in vivo", "conditions": "2B/- SMA mice", "description": "as §2"}, "[10]": {"experiment": "Plasma drug levels after P4-P16 dosing", "conditions": "FVB/N background, mouse, ip", "from_the_text": "Personnel conducting studies followed the approved standard operating procedures for daily monitoring, dosing, weaning and euthanasia according to the approved study protocol. […] Line maintenance was maintained by interbreeding of the congenic line and every 4th generation mice were outbred to wild type FBV/N mice (jax # 001800) to reduce the possibility of new mutations within the line. Smn 2B mice were internally developed and maintained in the DiDonato laboratory. To generate the SMA mice used in this study an intercross between Smn 2B/2B and Smn +/- mice was performed. This generated litters in which 50% of the offspring were control (2B/+) and 50% SMA (2B/-). The day of birth was considered to be P0. If pups were born after 3pm, the following day was considered P0. At P1, pups were counted. If greater than 10 pups to a cage, pups were randomly chosen and moved to another cage to increase litter size, culled to reduce litter size or genotyped at P1 and culled at P2 to reduce litter size to 10 or fewer pups. Thereafter, no culling of pups was performed for drug studies. Individual mice were genotyped from DNA obtained from tail snips by polymerase chain reaction (PCR). All mice were weaned at P21 and separated into male and female cages. […] For the PK single dose studies a single ip injection was used. […] Body weights were recorded daily in the AM and dosing volume was adjusted accordingly. […]"}, "[11]": {"experiment": "Single dose PK in adult FVB/N wild type mice", "from_the_text": "Personnel conducting studies followed the approved standard operating procedures for daily monitoring, dosing, weaning and euthanasia according to the approved study protocol. […] Line maintenance was maintained by interbreeding of the congenic line and every 4th generation mice were outbred to wild type FBV/N mice (jax # 001800) to reduce the possibility of new mutations within the line. Smn 2B mice were internally developed and maintained in the DiDonato laboratory. To generate the SMA mice used in this study an intercross between Smn 2B/2B and Smn +/- mice was performed. This generated litters in which 50% of the offspring were control (2B/+) and 50% SMA (2B/-). The day of birth was considered to be P0. If pups were born after 3pm, the following day was considered P0. At P1, pups were counted. If greater than 10 pups to a cage, pups were randomly chosen and moved to another cage to increase litter size, culled to reduce litter size or genotyped at P1 and culled at P2 to reduce litter size to 10 or fewer pups. Thereafter, no culling of pups was performed for drug studies. Individual mice were genotyped from DNA obtained from tail snips by polymerase chain reaction (PCR). All mice were weaned at P21 and separated into male and female cages. […] For the PK single dose studies a single ip injection was used. For survival studies drug level and tissue harvest mice from P4-P16 treatment, mice were treated twice daily (b.i.d.) via intraperitoneal (i.p.) injection starting on P4 and continuing until P20 or the sacrifice of the animals, whichever occurred sooner. The dosing interval was 12 hours ± 90 minutes. Body weights were recorded daily in the AM and dosing volume was adjusted accordingly. […] At P4, litters were randomized across treatment arms to uniformly control litter size and litter weight as appropriate. Litter size entry was a minimum of 6 and maximum of 10. Litters with average weights at P4 that were greater or less than two stand deviations below the average P4 litter weight of untreated litters were also excluded from study entry. All mice within a litter were dosed with only one test article or received no dose at all. Dosers/phenotypic testers were blinded to the test articles being administered. […] Mice meeting humane functional endpoints (30 percent loss of weight for two consecutive days and/or an inability to right within 1 minute or obvious state of distress) were immediately euthanized with CO2 followed by cervical dislocation as a secondary measure. […] Those not used for analyses were also euthanized using CO2 inhalation followed by cervical dislocation as a secondary measure."}, "[12]": {"experiment": "Single dose PK in P13 2B/- SMA and 2B/+ littermate pups", "from_the_text": "Personnel conducting studies followed the approved standard operating procedures for daily monitoring, dosing, weaning and euthanasia according to the approved study protocol. […] Line maintenance was maintained by interbreeding of the congenic line and every 4th generation mice were outbred to wild type FBV/N mice (jax # 001800) to reduce the possibility of new mutations within the line. Smn 2B mice were internally developed and maintained in the DiDonato laboratory. To generate the SMA mice used in this study an intercross between Smn 2B/2B and Smn +/- mice was performed. This generated litters in which 50% of the offspring were control (2B/+) and 50% SMA (2B/-). The day of birth was considered to be P0. If pups were born after 3pm, the following day was considered P0. At P1, pups were counted. If greater than 10 pups to a cage, pups were randomly chosen and moved to another cage to increase litter size, culled to reduce litter size or genotyped at P1 and culled at P2 to reduce litter size to 10 or fewer pups. Thereafter, no culling of pups was performed for drug studies. Individual mice were genotyped from DNA obtained from tail snips by polymerase chain reaction (PCR). All mice were weaned at P21 and separated into male and female cages. […] For the PK single dose studies a single ip injection was used. For survival studies drug level and tissue harvest mice from P4-P16 treatment, mice were treated twice daily (b.i.d.) via intraperitoneal (i.p.) injection starting on P4 and continuing until P20 or the sacrifice of the animals, whichever occurred sooner. The dosing interval was 12 hours ± 90 minutes. Body weights were recorded daily in the AM and dosing volume was adjusted accordingly. […] At P4, litters were randomized across treatment arms to uniformly control litter size and litter weight as appropriate. Litter size entry was a minimum of 6 and maximum of 10. Litters with average weights at P4 that were greater or less than two stand deviations below the average P4 litter weight of untreated litters were also excluded from study entry. […]"}, "N2a cells": {"test_system": "N2a cells", "experiment": "RNA-Seq (polyA RNA) of N2a neuroblastoma cells", "assay_type": "cell-based, mouse", "conditions": "1 μM", "protocol": "Cells were then pelleted and lysed in RLT and the RNA was purified according to the protocol for the Qiagen miRNeasy kit to separate and enrich small RNA and large (>200 nt) fractions separately. […] RNA quality was also validated using qPCR for DcpS responsive genes. RNA fractions were used for cDNA library preparation which was performed using Truseq mRNA v2 reagents or TailorMix miRNA reagents (RS-122-2101 Illumina, San Diego CA, USA and TM302 Seqmatic, Fremont CA, USA). Libraries were run on a Nextseq 500 (Illumina) using a paired-end run (2x75bp) generating ~60 million reads per library for the mRNA-seq and 1x75bp generating ~5 million reads per library for the miRNA-seq. Demultiplexing, alignment, and differential analysis for the mRNA-seq were performed as described below. For the miRNA alignment, briefly the sequences between 16 and 35 nucleotides with average phred score ≥ 30 were retained for analysis. The reads were first mapped to mouse miRNAs using Bowtie without allowing for mismatches. Instead of discarding the remaining reads, we explored the possibilities of RNA editing to include potential isomiRs. These reads were mapped to miRNAs that have at most 1 base mismatch, a substitution at the 5’ or 3’ ends, or have 1 or 2 extra bases at either ends. Although 1 base mismatch would include 1 base substitution/deletion/addition at the ends, we made sure that 1 base mismatch was inside the miRNA and that all categories were mutually exclusive. Reads mapping to protein coding exons and other small RNAs were removed prior to mapping to miRNAs. Reads that uniquely mapped to miRNAs were considered and were profiled as: 1) identical to miRNAs, 2) perfect match to miRNAs but are of shorter length (no more than 5 bases short), 3) mapping to miRNAs with 1 substitution, 1 or 2 extra bases at 3’ and 5’ ends and with those with at most 1 mismatch (occurring inside the sequence and not on ends), 4) mapping to the precursor miRNA. Thus, steps 2–4 constitute “IsomiRs”-alternative forms of the mature miRNAs. We merged the counts of reads identical to a miR and those mapping to isomeric forms as they are found to have identical/very similar functions. The unaligned reads were mapped to the mouse genome and an internally developed database of rRNAs from bacteria, fungi, plant and eukaryotes to detect presence of contaminants. For differential analysis of miRNAs, only those with counts of ≥5 in at least 1/3rd samples (treatment vs control) were considered for analysis. The counts were normalized and analyzed using EdgeR [19] packages in R-Bioconductor. The P-values were corrected by FDR for multiple testing and miRNAs with FDR ≤15% and |FC|>1.5 were considered to be differentially expressed.\nThe differentially regulated gene lists for both the spinal cord mRNA-seq and the N2a mRNA-seq results with a corrected P-value less than 0.05 were loaded into IPA and analyzed against the Ingenuity Knowledgebase, Ingenuity Expert Information, and with experimentally observed confidence."}, "recombinant human DcpS": {"biological_target": "T1, recombinant human DcpS (Homo sapiens, UniProt Q96C86)", "T1 sequence (Q96C86 1-337)": "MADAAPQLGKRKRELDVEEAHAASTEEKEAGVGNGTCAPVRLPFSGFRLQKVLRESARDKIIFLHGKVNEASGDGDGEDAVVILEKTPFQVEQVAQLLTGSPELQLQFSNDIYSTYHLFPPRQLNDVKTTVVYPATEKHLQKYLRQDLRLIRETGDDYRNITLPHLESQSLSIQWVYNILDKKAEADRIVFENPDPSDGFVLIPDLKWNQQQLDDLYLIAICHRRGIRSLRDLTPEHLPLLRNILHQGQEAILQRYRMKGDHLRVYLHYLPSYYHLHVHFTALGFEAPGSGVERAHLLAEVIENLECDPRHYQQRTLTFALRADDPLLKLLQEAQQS", "experiment": "in vitro DcpS inhibition assay (m7GpppA-biotin substrate, ADP-biotin detection)", "assay_type": "biochemical", "conditions": "mean of two or more independent assays", "method": "Incubations were initiated by the addition of 50 nM m7GpppA-biotin substrate and proceeded for 45 min at room temperature before being terminated by the addition of 1 μM D156844 [11]. Production of ADP-biotin was quantitated by transferring 18 μl of the quenched reaction (or biotin-ADP standard) to a streptavidin-coated plate (Pierce), incubating for 2 hours then washing 3 times followed by detection using an anti-ADP mouse antibody (Bellbrook lab) and an HRP-conjugated Goat anti-mouse IgG (Invitrogen)."}, "SMN protein [13]": {"test_system": "SMN protein", "experiment": "SMN protein by Western blot in SMA cells (fibroblasts, lymphoblasts, iPS-derived neural progenitor cells)", "assay_type": "cell-based, human", "conditions": "24 hours to 7 days", "protocol": "Lysates were incubated at 95°C for 5 minutes and cleared at 14,000 RPM for 15 minutes. Cleared lysates were quantified by BCA assay. A total of 5 μg of each lysate was mixed with NuPage LDS sample buffer with […] and loaded and separated on a NuPage 10% Bis-Tris gel. Proteins were transferred to 0.2 micron nitrocellulose using the BioRad Turbo Transfer system."}, "[14]": {"conditions": "P16, Fisher's exact test P-value = 0.0708"}, "[15]": {"conditions": "adult FVB/N mice, 30 mg/kg i.p."}},
  "data": [
    {"smiles": "Nc1nc(N)c2c(OCC3CCN(Cc4ccccc4F)CC3)cccc2n1", "note": "[D156844]", "values": [
      {"measurement": "effect on CMV-driven Renilla luciferase activity", "setting": "[1]", "value": "strong effect"},
      {"measurement": "endogenous mouse Smn mRNA", "setting": "Smn mRNA in NSC-34 cells", "value": "elevated the endogenous mouse Smn mRNA"},
      {"measurement": "SMN protein levels", "setting": "[2]", "value": "raised SMN protein levels"},
      {"measurement": "numbers of SMN-positive nuclear foci (gems)", "setting": "[2]", "value": "dramatically increased"},
      {"measurement": "SMN2 or SMNΔ7 transcript levels or SMN protein in CNS tissues", "setting": "SMA Δ7 mice", "value": "no statistically significant effect"},
      {"measurement": "snRNP assembly", "setting": "SMA Δ7 mice", "value": "nor did it have any statistically significant effect"},
      {"measurement": "physicochemical character (lipophilicity, basicity)", "setting": "[3]", "value": "highly lipophilic and dibasic"}
    ]},
    {"smiles": "CC(C)c1cc(C(=O)Nc2ccc(F)c(Cl)c2)no1", "note": "[LDN-75654]", "values": [
      {"measurement": "effect on SMN2-driven firefly luciferase activity", "setting": "[4]", "value": "strong positive effect"},
      {"measurement": "effect on CMV-driven Renilla luciferase activity", "setting": "[1]", "value": "much weaker"}
    ]},
    {"smiles": "N#Cc1cc(F)cc(OCc2cccc3nc(N)nc(N)c23)c1", "note": "[PF-06738066]", "values": [
      {"measurement": "changes in SMN transcripts", "setting": "[5]", "value": "modest changes in SMN transcripts"},
      {"measurement": "effect on CMV-driven Renilla luciferase activity", "setting": "[1]", "value": "strong effect"},
      {"measurement": "effect on survival of SMA mice compared to vehicle-treated SMA mice", "setting": "2B/- SMA mice [6]", "value": "statistically significant beneficial effect on survival"},
      {"measurement": "simultaneous pass rate, 55° negative geotaxis and climb test", "setting": "2B/- SMA mice [7]; 2B/- SMA mice at P16, combined sexes", "value": "about 78%"},
      {"measurement": "improvement in ability to pass the combined assay over vehicle SMA mice", "setting": "2B/- SMA mice [7]; [14]", "value": "~40", "unit": "%"},
      {"measurement": "statistical significance of improvement over vehicle SMA mice in combined test", "setting": "2B/- SMA mice [7]; [14]", "value": "showed improvement over vehicle SMA mice that did not reach statistical significance"},
      {"measurement": "Smn exons 7/8 in spinal cord", "setting": "[8]; 2B/+ control mice", "value": "significant decrease"},
      {"measurement": "Smn transcripts (exons 5/6, exons 7/8, SmnΔ7) in tissues", "setting": "[8]; 2B/- SMA mice, P4-P16 BID i.p.", "value": "significant increases in Smn transcripts in all tissues"},
      {"measurement": "Smn protein levels in muscle", "setting": "Smn protein [9]", "value": "small but significant increase in muscle"},
      {"measurement": "Smn protein levels in spinal cord", "setting": "Smn protein [9]", "value": "significant decrease in spinal cord"},
      {"measurement": "concentration at 12 h", "setting": "[10]", "value": "184 ± 76", "unit": "nM"},
      {"measurement": "Cave,u Brain", "setting": "[11]; FVB/N mice, 30mpk IP", "value": 63, "unit": "nM"},
      {"measurement": "Cave,u CSF", "setting": "[11]; FVB/N mice, 30mpk IP", "value": 47, "unit": "nM"},
      {"measurement": "Cave,u Plasma", "setting": "[11]; FVB/N mice, 30mpk IP", "value": 173, "unit": "nM"},
      {"measurement": "brain penetration", "setting": "[11]; [15]", "value": "moderate brain penetration"},
      {"measurement": "free drug levels in brain and CSF lower than in plasma", "setting": "[11]; [15]", "value": "approximately 2.5 fold"},
      {"measurement": "free drug levels in brain lower than in plasma", "setting": "[12]; 2B/- SMA pups, P13, 10 mg/kg i.p.", "value": "3–4 fold"},
      {"measurement": "concentration at 12 h", "setting": "[12]; FVB/N background, mouse, brain, intraperitoneal, 10 mg/kg", "value": "~7", "unit": "nM"},
      {"measurement": "drug exposures in SMA pups compared to healthy littermates", "setting": "[12]; P13, 10 mg/kg i.p.", "value": "somewhat higher in SMA pups"}
    ]},
    {"smiles": "Cc1cc(OCC2CCN(Cc3c(Cl)cccc3Cl)CC2)c2c(N)nc(N)nc2c1", "note": "[PF-06802336]", "values": [
      {"measurement": "effect on SMN2-driven firefly luciferase activity", "setting": "[4]", "value": "no effect"},
      {"measurement": "effect on CMV-driven Renilla luciferase activity", "setting": "[1]", "value": "no effect"},
      {"measurement": "genes down-regulated by compound (P < 0.05)", "setting": "N2a cells; 24 hours", "value": 3, "unit": "genes"},
      {"measurement": "genes upregulated by compound (P < 0.05)", "setting": "N2a cells; 24 hours", "value": 4, "unit": "genes"},
      {"measurement": "genes differentially expressed compared to DMSO (P < 0.05)", "setting": "N2a cells; 24 hours, 18,409 detectable genes", "value": 7, "unit": "genes"}
    ]},
    {"smiles": "Cc1cc(COc2cc(F)cc(C#N)c2)c2c(N)nc(N)nc2c1", "note": "[PF-06832344]", "values": [
      {"measurement": "IC50", "setting": "recombinant human DcpS", "value": "> 10", "unit": "µM"}
    ]},
    {"smiles": "CCN1CCN(c2ccc3cc(-c4cn5cc(C)nc(C)c5n4)c(=O)oc3c2)C[C@@H]1C", "note": "[SMN-C2]", "values": [
      {"measurement": "SMN protein", "setting": "SMN protein [13]", "value": "positive SMN response"},
      {"measurement": "effect on SMN2-driven firefly luciferase activity", "setting": "[4]", "value": "strong positive effect"},
      {"measurement": "effect on CMV-driven Renilla luciferase activity", "setting": "[1]", "value": "no effect"}
    ]}
  ]
}
